{"source": "ChEMBL document CHEMBL1201862", "about": "“PubChem BioAssay data set” (2004)", "key": {"[1]": {"test": "Late stage assay provider results from the probe development effort to identify inhibitors of the Plasmodium falciparum M17 Leucine Aminopeptidase (M17LAP): radiolabel-based cell-based dose response assay to identify compounds that inhibit P. falciparum growth in RBCs Set 2.", "format": "functional"}, "[2]": {"target": "T1, Probable nicotinate-nucleotide adenylyltransferase (Staphylococcus aureus (strain N315), UniProt P65502)", "T1 sequence (P65502 whole entry)": "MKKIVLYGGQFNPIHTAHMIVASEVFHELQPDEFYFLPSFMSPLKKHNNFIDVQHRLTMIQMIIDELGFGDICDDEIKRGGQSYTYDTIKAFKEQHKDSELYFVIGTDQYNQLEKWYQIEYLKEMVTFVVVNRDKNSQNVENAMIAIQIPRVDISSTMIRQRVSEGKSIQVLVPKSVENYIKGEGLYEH", "format": "functional, Staphylococcus aureus subsp. aureus N315"}, "[3]": {"target": "T1, Probable nicotinate-nucleotide adenylyltransferase", "format": "functional, Staphylococcus aureus subsp. aureus N315", "conditions": "read-out: IC50_Mean"}, "[4]": {"target": "T2, Methionyl-tRNA synthetase, putative (Trypanosoma brucei brucei, UniProt Q38C91)", "T2 sequence (Q38C91 whole entry)": "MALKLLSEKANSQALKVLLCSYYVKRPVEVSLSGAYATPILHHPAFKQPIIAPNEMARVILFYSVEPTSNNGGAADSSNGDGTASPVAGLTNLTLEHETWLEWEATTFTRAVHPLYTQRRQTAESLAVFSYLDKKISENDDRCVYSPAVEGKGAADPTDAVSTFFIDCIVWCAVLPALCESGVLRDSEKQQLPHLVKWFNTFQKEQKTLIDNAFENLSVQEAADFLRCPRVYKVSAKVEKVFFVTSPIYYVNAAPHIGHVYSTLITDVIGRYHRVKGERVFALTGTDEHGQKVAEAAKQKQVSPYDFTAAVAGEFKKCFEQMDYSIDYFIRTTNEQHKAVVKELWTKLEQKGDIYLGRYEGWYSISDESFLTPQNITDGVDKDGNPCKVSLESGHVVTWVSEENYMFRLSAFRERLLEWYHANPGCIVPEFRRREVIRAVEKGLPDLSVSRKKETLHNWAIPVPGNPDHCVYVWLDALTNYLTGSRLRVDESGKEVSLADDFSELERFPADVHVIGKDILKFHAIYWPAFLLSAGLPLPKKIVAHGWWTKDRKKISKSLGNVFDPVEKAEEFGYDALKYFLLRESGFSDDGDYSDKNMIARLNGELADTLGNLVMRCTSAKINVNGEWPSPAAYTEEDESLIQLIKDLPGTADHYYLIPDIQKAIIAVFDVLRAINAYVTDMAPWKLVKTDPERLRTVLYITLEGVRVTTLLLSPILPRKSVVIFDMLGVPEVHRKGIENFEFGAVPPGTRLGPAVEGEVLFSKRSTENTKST", "format": "functional, Trypanosoma brucei brucei strain 927/4 GUTat10.1"}, "[5]": {"target": "T2, Methionyl-tRNA synthetase, putative", "format": "functional, Trypanosoma brucei brucei strain 927/4 GUTat10.1", "remark": "listed apart in the source"}, "[6]": {"test": "Counterscreen for inhibitors of Trypanosoma brucei methionyl tRNA synthetase (MetRS): Luminescence-based cell-based high throughput dose response assay to identify compounds that are cytotoxic to Jurkat human T lymphocyte cells.", "format": "functional"}, "[7]": {"target": "T3, Oxysterols receptor LXR-beta (Homo sapiens, UniProt P55055)", "T3 sequence (P55055 whole entry)": "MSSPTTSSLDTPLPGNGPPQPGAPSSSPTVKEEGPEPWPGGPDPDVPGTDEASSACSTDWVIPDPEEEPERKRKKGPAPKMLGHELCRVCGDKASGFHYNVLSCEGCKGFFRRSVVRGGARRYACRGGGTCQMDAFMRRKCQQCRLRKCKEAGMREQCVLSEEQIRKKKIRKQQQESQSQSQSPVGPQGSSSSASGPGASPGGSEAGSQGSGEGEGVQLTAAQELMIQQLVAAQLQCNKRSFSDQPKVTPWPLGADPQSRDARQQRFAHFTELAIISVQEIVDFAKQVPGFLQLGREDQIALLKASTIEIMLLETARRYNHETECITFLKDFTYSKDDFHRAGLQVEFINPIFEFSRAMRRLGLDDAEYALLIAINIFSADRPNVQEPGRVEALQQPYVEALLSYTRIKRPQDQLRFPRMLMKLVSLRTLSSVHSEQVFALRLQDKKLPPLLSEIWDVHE", "format": "functional, cell-based"}, "Galanin receptor type 3": {"target": "Galanin receptor type 3 (Homo sapiens, UniProt O60755)", "sequence (O60755 whole entry)": "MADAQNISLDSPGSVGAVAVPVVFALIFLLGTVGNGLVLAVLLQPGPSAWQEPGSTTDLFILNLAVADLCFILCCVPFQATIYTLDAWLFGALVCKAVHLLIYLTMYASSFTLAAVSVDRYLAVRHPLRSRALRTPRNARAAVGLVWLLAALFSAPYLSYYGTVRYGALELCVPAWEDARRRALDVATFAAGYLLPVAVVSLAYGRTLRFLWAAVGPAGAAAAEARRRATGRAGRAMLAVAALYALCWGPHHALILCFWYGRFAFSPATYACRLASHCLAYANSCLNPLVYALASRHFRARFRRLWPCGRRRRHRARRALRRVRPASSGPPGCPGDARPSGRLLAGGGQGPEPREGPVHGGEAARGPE", "test": "Fluorescence-based cell-based primary high throughput dose response assay to identify antagonists of the Galanin Receptor 3 (GalR3).", "format": "functional"}, "cells": {"test": "cells", "format": "functional, cell-based", "conditions": "HEK-CNG"}, "[8]": {"test": "Trypanosoma cruzi growth suppression in host cells – NIH3T3 host cells, beta-gal luminescence, confirmation (AID 2044);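 note: intracellular parasites grown in NIH/3T3 mouse fibroblasts as host cells; luminescent beta-galactosidase reporter signal from transgenic T. cruzi replicating inside host cells; inhibitors lower the luminescence signal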", "format": "functional, cell-based"}, "[9]": {"test": "NIH3T3 cell viability loss – ATP luminescence, mouse fibroblasts, counter-screen, dose response (AID 2010);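 note: cells exposed to compound for about 90 hours before reading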", "format": "functional, cell-based"}, "[10]": {"target": "T4, Sentrin-specific protease 8 (Homo sapiens, UniProt Q96LD8)", "T4 sequence (Q96LD8 whole entry)": "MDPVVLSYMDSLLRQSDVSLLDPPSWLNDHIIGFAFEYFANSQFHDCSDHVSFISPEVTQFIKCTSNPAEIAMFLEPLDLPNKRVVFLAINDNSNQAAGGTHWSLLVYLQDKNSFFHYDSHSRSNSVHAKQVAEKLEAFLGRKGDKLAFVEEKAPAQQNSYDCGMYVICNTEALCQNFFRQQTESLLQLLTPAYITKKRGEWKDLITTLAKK", "format": "functional"}, "[11]": {"target": "T4, Sentrin-specific protease 8", "format": "functional", "remark": "listed apart in the source"}, "[12]": {"test": "HEK-293T cell viability reduction – luminescence, B-cell screen hits, cytotoxicity control for BCR NF-kB inhibitor project, dose response (AID 489021);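 note: HEK-293T cells carrying an NF-kB luciferase reporter; cells exposed to compound for about 14 hours before viability readout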", "format": "functional, cell-based"}, "[13]": {"test": "inhibition of ADAM10 peptide cleavage – biochemical, FRET peptide substrate, recombinant human ADAM10, selectivity assay for ADAM17 exosite inhibitor project, dose response (AID 743259)"}, "[14]": {"target": "Disintegrin and metalloproteinase domain-containing protein 17 (Homo sapiens, UniProt P78536)", "sequence (P78536 whole entry, the tested form may be a part)": "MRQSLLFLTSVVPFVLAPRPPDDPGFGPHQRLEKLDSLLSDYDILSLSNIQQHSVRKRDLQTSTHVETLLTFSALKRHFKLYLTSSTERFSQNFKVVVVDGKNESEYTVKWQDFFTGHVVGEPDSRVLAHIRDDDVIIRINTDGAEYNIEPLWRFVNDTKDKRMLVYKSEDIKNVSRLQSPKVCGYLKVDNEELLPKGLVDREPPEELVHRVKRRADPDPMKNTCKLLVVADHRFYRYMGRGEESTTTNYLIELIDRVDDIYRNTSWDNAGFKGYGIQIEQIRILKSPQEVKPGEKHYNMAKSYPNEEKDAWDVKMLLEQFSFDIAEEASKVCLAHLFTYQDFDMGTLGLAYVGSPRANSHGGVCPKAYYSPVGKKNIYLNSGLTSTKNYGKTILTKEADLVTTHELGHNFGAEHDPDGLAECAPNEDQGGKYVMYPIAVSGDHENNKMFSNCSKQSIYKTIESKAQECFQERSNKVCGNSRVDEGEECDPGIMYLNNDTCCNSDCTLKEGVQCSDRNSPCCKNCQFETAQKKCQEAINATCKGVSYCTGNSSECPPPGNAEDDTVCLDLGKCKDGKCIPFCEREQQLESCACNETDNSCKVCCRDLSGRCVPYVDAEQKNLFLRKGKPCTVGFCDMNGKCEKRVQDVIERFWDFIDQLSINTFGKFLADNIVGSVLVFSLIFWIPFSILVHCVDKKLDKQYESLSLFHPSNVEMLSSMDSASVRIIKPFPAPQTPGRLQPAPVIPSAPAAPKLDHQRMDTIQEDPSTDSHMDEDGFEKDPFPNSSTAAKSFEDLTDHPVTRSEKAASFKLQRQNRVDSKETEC", "test": "exosite inhibitors of ADAM17, dose response, biochemical (AID 743260)"}, "Paired box protein Pax-8": {"target": "Paired box protein Pax-8 (Homo sapiens, UniProt Q06710)", "sequence (Q06710 whole entry)": "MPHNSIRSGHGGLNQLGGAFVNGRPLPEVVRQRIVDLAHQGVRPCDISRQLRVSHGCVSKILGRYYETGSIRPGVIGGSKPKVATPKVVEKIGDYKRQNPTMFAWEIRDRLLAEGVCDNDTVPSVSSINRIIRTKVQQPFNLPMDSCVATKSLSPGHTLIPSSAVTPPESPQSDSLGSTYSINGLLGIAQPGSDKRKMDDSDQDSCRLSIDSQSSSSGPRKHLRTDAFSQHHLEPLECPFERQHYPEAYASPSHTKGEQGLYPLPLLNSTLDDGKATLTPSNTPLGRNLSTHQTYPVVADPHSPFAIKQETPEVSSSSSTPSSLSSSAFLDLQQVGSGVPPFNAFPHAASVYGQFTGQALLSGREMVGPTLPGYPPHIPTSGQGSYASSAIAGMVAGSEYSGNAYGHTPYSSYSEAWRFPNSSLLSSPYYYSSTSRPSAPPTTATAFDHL", "test": "PAX8 transcriptional activity inhibition in RMG-I – RMG-I cells, luciferase, cherry-pick, dose response (AID 687027);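 note: luciferase reporter driven by Pax8 target thyroperoxidase promoter measured by SteadyGlo luminescence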", "format": "functional, cell-based"}, "[15]": {"test": "OVCAR8 cell viability loss – plate reader, dry powder samples, PAX8 project, dose response (AID 743197)", "format": "functional, cell-based", "conditions": "OVCAR-8"}, "[16]": {"test": "OVCAR-3 cell viability loss – plate reader, dry powder samples, PAX8 inhibitor project, dose response (AID 743044)", "format": "functional, cell-based"}, "[17]": {"target": "T5, Long-chain-fatty-acid--AMP ligase FadD28 (Mycobacterium tuberculosis, UniProt P9WQ59)", "T5 sequence (P9WQ59 whole entry)": "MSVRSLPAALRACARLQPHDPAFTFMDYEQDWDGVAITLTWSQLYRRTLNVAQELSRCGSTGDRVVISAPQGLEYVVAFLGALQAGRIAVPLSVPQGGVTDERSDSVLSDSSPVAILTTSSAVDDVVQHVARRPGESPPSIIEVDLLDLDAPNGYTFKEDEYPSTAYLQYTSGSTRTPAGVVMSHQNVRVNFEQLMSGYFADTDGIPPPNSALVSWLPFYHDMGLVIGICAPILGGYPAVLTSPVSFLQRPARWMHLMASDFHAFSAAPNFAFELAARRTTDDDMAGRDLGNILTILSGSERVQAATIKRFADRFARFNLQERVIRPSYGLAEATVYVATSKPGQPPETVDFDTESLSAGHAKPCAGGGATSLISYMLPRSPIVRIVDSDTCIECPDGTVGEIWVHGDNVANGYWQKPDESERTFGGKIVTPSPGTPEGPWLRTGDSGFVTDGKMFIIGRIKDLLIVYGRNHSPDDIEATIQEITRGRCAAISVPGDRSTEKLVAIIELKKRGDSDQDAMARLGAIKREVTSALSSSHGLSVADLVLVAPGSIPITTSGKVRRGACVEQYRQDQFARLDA", "test": "Fluorescence polarization aasay to screen for inhibitors that compete for the binding of FadD28 to a bisubstrate Measured in Biochemical System Using Plate Reader - 2147-01_Inhibitor_Dose_CherryPick_Activity.", "format": "functional, Mycobacterium tuberculosis H37Rv"}, "[18]": {"test": "HGIII-sPLA2 enzyme inhibition potency – biochemical, QFRET, IC50, dose response (AID 743457);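 note: green fluorescence rise as the enzyme cleaves BODIPY PC-A2 in liposomes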"}, "H9c2": {"system": "H9c2", "test": "cells", "format": "functional, cell-based", "conditions": "Rattus norvegicus, H9c2, Myocardium"}}, "note": "Calls of active or inactive are those of the source.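 Throughout, for IC50 Mean: confirmatory dose-response retesting of NadD inhibitor hits first found in an ultra-high-throughput screen.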", "data": [{"smiles": "CCOc1ccc(CC(=O)NO)cc1", "values": [{"measurement": "IC50", "setting": "[1]", "result": "7.2 µM (active)"}]}, {"smiles": "CC1(OC(=O)C2CCCC2)C(=O)C=C2C=C(c3ccc(C#N)cc3)OC=C2C1=O", "note": "(configuration not stated)", "values": [{"measurement": "IC50", "setting": "[2]", "result": "6.57 µM (active)"}, {"measurement": "IC50", "setting": "[3]", "result": "15.7 µM (active)"}]}, {"smiles": "COc1ccc(CNC(=O)CSc2n[nH]c3c4ccccc4nc-3n2)cc1", "values": [{"measurement": "IC50", "setting": "[4]", "result": "4.39 µM (active)"}, {"measurement": "IC50", "setting": "[5]", "result": "1.54 µM (active)"}, {"measurement": "IC50", "setting": "[6]", "result": "83.3 µM (inactive)"}]}, {"smiles": "Cc1cccc(Nc2[nH]nc(C)c2[N+](=O)[O-])c1", "values": [{"measurement": "EC50", "setting": "[7]", "result": "> 67.5 µM (inactive)"}]}, {"smiles": "CNC(=O)NC(=O)CSc1nnc(-c2ccc(F)cc2)n1CC1CCCO1", "note": "(configuration not stated)", "values": [{"measurement": "IC50", "setting": "Galanin receptor type 3", "result": "> 29.9 µM (inactive)"}, {"measurement": "EC50", "setting": "cells", "result": "> 29.9 µM (inactive)"}]}, {"smiles": "Cc1ccc(Sc2cc(NCCCO)c([N+](=O)[O-])c3nonc23)cc1", "values": [{"measurement": "EC50", "setting": "[8]", "result": "2.2 µM (active)"}, {"measurement": "EC50", "setting": "[9]", "result": "> 60 µM (not active)"}, {"measurement": "IC50", "setting": "[10]", "result": "23.3 µM (active)"}, {"measurement": "IC50", "setting": "[11]", "result": "18.1 µM (active)"}, {"measurement": "IC50", "setting": "[12]", "result": "> 80 µM (inactive)"}]}, {"smiles": "CC(C)(C)OC(=O)N1CCCC(C(=O)Nc2cccc(C(=O)NCCCCc3ccccc3)c2)C1", "note": "(configuration not stated)", "values": [{"measurement": "IC50", "setting": "[13]", "result": "> 69.5 µM (inactive)"}, {"measurement": "IC50", "setting": "[14]", "result": "> 69.5 µM (inactive)"}]}, {"smiles": "COCCNC(=O)C[C@@H]1C[C@H]2c3cc(NC(=O)Nc4ccc(C(F)(F)F)cc4)ccc3O[C@H]2[C@H](CO)O1", "values": [{"measurement": "AC50", "setting": "Paired box protein Pax-8", "result": "26.6 µM (active)"}, {"measurement": "AC50", "setting": "[15]", "result": "> 70 µM (inactive)"}]}, {"smiles": "Cc1ccc2nc(-c3ccccn3)oc2c1", "values": [{"measurement": "EC50", "setting": "[7]", "result": "> 67.6 µM (inactive)"}]}, {"smiles": "Cc1ccc(S(=O)(=O)Nc2ccc3c(c2)C(=O)N([C@H](C)CO)C[C@H](C)[C@@H](CN(C)S(=O)(=O)c2cccs2)OCCCC[C@H](C)O3)cc1", "values": [{"measurement": "AC50", "setting": "[16]", "result": "20.5 µM (active)"}, {"measurement": "AC50", "setting": "Paired box protein Pax-8", "result": "4.23 µM (active)"}, {"measurement": "AC50", "setting": "[15]", "result": "> 70 µM (inactive)"}]}, {"smiles": "COc1cccc(CN2C(=O)[C@@H]3Cc4c([nH]c5ccccc45)C(C)(C)N3C2=O)c1", "values": [{"measurement": "IC50", "setting": "[13]", "result": "> 69.4 µM (inactive)"}, {"measurement": "IC50", "setting": "[14]", "result": "> 69.4 µM (inactive)"}]}, {"smiles": "CCOC(=O)N1CCN(S(=O)(=O)c2ccc(C(=O)NNc3nc4c(C)cccc4s3)cc2)CC1", "values": [{"measurement": "AC50", "setting": "[17]", "result": "22.1 µM (active)"}, {"measurement": "IC50", "setting": "[18]", "result": "25.9 µM (inactive)"}, {"measurement": "IC50", "setting": "H9c2", "result": "14.2 µM (active)"}]}]}
